Results taken from the NIST ThermoML archive (doi:10.1016/j.jct.2016.09.007).

Assay: xn = mol fraction of the nth substance listed
Conditions: 93.2 kPa, Liquid; for speed of sound: Frequency=3 MHz, Sing-around technique in a fixed-path interferometer; for mass density: Vibrating tube method

CCCC(=O)[O-].CCCC[NH3+] [n-butylammonium butanoate] + CCO
Conditions	mass density, 293.15 K [kg/m3]	mass density, 298.15 K [kg/m3]	mass density, 303.15 K [kg/m3]	mass density, 308.15 K [kg/m3]	mass density, 313.15 K [kg/m3]	speed of sound, 293.15 K [m/s]	speed of sound, 298.15 K [m/s]	speed of sound, 303.15 K [m/s]	speed of sound, 308.15 K [m/s]	speed of sound, 313.15 K [m/s]
x1 = 0.0512	814.143	810.002	805.829	801.613	797.355	1199	1182	1165	1148.2	1131.5
x1 = 0.1009	832.02	828.016	823.986	819.912	815.802	1227.7	1210.7	1193.8	1177	1160.4
x1 = 0.1503	846.238	842.335	838.406	834.444	830.445	1251.6	1234.6	1217.8	1201.1	1184.5
x1 = 0.1994	858.208	854.396	850.551	846.681	842.738	1272.7	1255.7	1238.9	1222.2	1205.7
x1 = 0.2504	868.474	864.721	860.912	857.053	853.31	1291.1	1274.2	1257.4	1240.8	1224.2
x1 = 0.2982	876.405	872.722	869.017	865.27	861.491	1306	1289.1	1272.3	1255.7	1239.2
x1 = 0.3495	883.788	880.151	876.505	872.836	869.15	1320	1303.1	1286.3	1269.7	1253.3
x1 = 0.399	890.046	886.464	882.862	879.217	875.544	1332.2	1315.3	1298.5	1282	1265.5
x1 = 0.4372	894.397	890.847	887.284	883.704	880.105	1340.7	1323.8	1307.1	1290.5	1274.1
x1 = 0.4992	900.42	896.912	893.396	889.863	886.306	1352.8	1335.9	1319.2	1302.6	1286.2
x1 = 0.547	904.601	901.123	897.636	894.139	890.621	1361.5	1344.5	1327.7	1311.2	1294.8
x1 = 0.6017	908.757	905.303	901.834	898.348	894.849	1370.4	1353.3	1336.5	1319.9	1303.6
x1 = 0.649	912.071	908.66	905.237	901.798	898.346	1377.6	1360.5	1343.6	1326.9	1310.6
x1 = 0.6917	914.76	911.378	907.983	904.574	901.145	1384	1366.7	1349.7	1333	1316.6
x1 = 0.7436	917.782	914.431	911.071	907.692	904.29	1391.5	1373.9	1356.7	1339.9	1323.4
x1 = 0.7901	920.284	916.95	913.616	910.264	906.897	1398.2	1380.2	1362.8	1345.9	1329.3
x1 = 0.8493	923.093	919.763	916.446	913.124	909.786	1406.5	1388	1370.2	1352.9	1336.2
x1 = 0.8904	924.887	921.547	918.232	914.921	911.604	1412.5	1393.5	1375.2	1357.7	1340.7
x1 = 0.94	927.026	923.73	920.395	917.09	913.789	1420.7	1400.8	1382	1364	1346.7
x1 = 1	928.794	925.509	922.217	918.88	915.567	1431.5	1410.3	1390.4	1371.5	1353.6
